{
  "source": "patent US9937178B2",
  "about": "“Methods of identifying and using MDM2 inhibitors” (DUKE UNIVERSITY, priority 2011, dated 2018)",
  "key": {"[1]": {"system": "caspase-9 / caspase-3 activation", "assay": "Cytochrome c-induced caspase activation in cell lysates", "assay_type": "cell-based", "conditions": "lysates of resistant cells cultured in the presence of lapatinib", "description": "FIG. 7A is an immunoblot for caspase-9 (cleaved and non-cleaved) and cleaved caspase-3 (C9 and C3, respectively) showing rBT474 cells cultured in the absence or presence of 1 μM lapatinib for one week, as compared to BT474 cells which were maintained without lapatinib. Cytosolic lysates prepared from BT474 or rBT474 were incubated with 1 mM dATP and various amounts of cytochrome c (CC). FIG. 7B is a set of graphs showing Caspase 3 activity in the indicated cell lysates over time. Caspase-3 activity was assayed by measuring cleavage of DEVD-pNA following incubation of the cell lysates with 1 mM dATP and various concentrations of cytochrome c.\nCell lysates for apoptotic assays were prepared as described previously using buffer A (20 mM HEPES [pH 7.4], 10 mM KCl, 1.5 mM MgCl2, 1 mM EDTA, 1 mM EGTA, 1 mM dithiothreitol, 1 mM phenylmethylsulfonyl fluoride, 5 μg/ml leupeptin, and 5 μg/ml aprotinin). […]\nColorimetric caspase assays were performed by incubating cell lysate (3 μl) in 90 μl DEVDase buffer (50 mM HEPES [pH 7.5], 100 mMNaCl, 0.1% CHAPS, 10 mMDTT, 1 mMEDTA, 10% glycerol) containing the peptide substrate, Ac-DEVD-pNA (200 mM final concentration; BIOMOL Research Labs). […] Absorbance of the colorimetric product was measured at 405 nm using a Bio-Rad microplate reader."}, "[2]": {"system": "mitochondrial cytochrome c release", "assay": "Western blot for cytochrome c in cytosolic lysates lacking mitochondria", "conditions": "1 μM lapatinib, 24 hours"}, "[3]": {"system": "BT474 xenografts", "assay": "BT474 mammary fat pad xenograft", "conditions": "100 mg/kg each drug, twice daily by oral gavage", "description": "Forty-eight hours after siRNA transfection, cells were treated with 1 μM lapatinib for 48 hours, and cells were harvested and subjected to Annexin V staining. The percentage of Annexin V-positive cells was analyzed by FACS. Results are expressed as a mean percentage±SEM and analyzed by t-test (*P<0.05). […] The oral administration of lapatinib (100 mg/kg, twice daily by oral gavage) began when the average tumor volume surpassed 300 mm^3. Results are expressed as a mean percentage±SEM. […] After 36 hours, cells were harvested and immunoblotted. […] BT474 and rBT474 cells were injected into the mammary fad pad of each mouse. When tumors developed to a size of 200 mm^3, the mice were randomly assigned to receive vehicle, lapatinib (100 mg/kg), Nutlin-3 (100 mg/kg), or Lapatinib+Nutlin-3 and treated twice daily by oral gavage. Results are expressed as a mean percentage±SEM. […] Percentage of apoptotic cell death was measured by FACS analysis using Annexin V. Results are expressed as a mean percentage±SEM of Annexin V-positive cells (*P<0.05 by t-test).\nSix week-old female nude mice were purchased from NCI Frederic. Xenograft tumors were produced by injection into the mammary fat pad with cells (10×10^6). Tumor volumes were calculated every 3-4 days based on caliper measurements of the short (a) and long (b) tumor diameters (volume=a2b/2). […]"}, "[4]": {"biological_target": "HER2 (Homo sapiens, UniProt P04626)", "sequence (P04626 23-1255)": "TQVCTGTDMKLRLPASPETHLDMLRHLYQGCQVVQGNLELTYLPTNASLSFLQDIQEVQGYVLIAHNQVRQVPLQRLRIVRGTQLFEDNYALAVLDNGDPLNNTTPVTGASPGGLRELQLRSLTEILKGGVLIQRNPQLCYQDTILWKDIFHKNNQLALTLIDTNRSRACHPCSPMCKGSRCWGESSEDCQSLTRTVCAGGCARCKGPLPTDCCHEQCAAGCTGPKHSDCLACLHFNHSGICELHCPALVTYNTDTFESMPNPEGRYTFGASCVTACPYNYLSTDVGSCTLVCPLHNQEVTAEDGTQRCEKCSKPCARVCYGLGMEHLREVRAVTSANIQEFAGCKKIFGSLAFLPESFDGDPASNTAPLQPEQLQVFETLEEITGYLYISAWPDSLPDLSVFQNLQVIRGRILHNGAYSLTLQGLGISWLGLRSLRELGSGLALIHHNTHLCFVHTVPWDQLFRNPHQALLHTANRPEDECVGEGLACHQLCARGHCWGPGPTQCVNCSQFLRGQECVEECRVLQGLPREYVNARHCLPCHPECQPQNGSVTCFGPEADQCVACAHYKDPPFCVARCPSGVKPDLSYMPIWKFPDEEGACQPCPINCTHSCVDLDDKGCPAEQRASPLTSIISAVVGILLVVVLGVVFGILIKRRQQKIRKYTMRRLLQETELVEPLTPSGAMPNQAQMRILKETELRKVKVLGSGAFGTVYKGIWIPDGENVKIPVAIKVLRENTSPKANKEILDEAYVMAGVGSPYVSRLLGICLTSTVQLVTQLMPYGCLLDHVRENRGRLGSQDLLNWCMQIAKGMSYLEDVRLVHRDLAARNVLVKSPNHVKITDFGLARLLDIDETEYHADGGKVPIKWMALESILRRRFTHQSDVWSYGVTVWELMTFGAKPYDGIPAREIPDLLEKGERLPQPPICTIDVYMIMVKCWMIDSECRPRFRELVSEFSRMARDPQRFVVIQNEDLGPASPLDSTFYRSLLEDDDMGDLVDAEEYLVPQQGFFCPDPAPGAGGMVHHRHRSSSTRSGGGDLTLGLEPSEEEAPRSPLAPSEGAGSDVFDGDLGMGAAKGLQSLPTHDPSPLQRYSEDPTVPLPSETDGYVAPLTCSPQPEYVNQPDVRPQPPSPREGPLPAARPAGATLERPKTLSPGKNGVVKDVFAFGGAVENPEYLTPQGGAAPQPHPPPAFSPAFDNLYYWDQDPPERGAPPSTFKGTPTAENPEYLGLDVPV", "assay": "Immunoblot of phospho-HER2 in lapatinib-treated cells", "assay_type": "cell-based", "conditions": "1 μM lapatinib, 24 hours, z-VAD 50 μM; even in resistant cells"}, "[5]": {"system": "Huwe1", "assay": "Immunoblot of Huwe1 protein levels and stability", "assay_type": "cell-based", "procedure": "FIG. 13 is a set of immunoblots showing MDM2-mediated ubiquitylation and degradation of Huwe1 in lapatinib-resistant cells. […] Cells treated with 1 μM lapatinib were harvested at various time points and immunoblotted. […] FIG. 13B is an immunoblot for HA and actin. BT474 and rBT474 cells were transiently transfected with HA-tagged Huwe1 and subsequently treated with 50 μg/ml cycloheximide (CHX) and 1 μM lapatinib. FIG. 13C is an immunoblot for Huwe1 and MDM2. Immunoprecipitation was carried out using H1299 cell lysates and anti-Huwe1 antibody (or control IgG). FIG. 13D is an immunoblot for HA or MDM2 after immunoprecipitation with HA. BT474 cells were transfected with HA-tagged Huwe1 encoding the full-length protein, residues 1-2474, or residues 2473-4374. […] H1299 cells were transfected with empty vector, HA-Huwe1^W1202A, or HA-Huwe1 wild type. FIG. 13F is an immunoblot for Huwe1 and Actin. BT474 cells were transfected with increasing amounts of MDM2 and harvested after 48 hours. FIG. 13G is an immunoblot for Huwe1, MDM2, and actin. […] FIG. 13H is an immunoblot for Huwe1. Ubiquitylation of Huwe1 was reconstituted in vitro by incubating recombinant Huwe1 protein (Huwe1^1-2474) with E1, UbcH5 (E2), ubiquitin (Ub), and recombinant MDM2 protein in reaction buffer at 37° C. for 3 hours. […] Twenty-four hours later, the cells were replated and further transfected with HA-tagged Huwe1 (wild type). Forty-eight hours after siRNA transfection, the cells were treated with 1 μM lapatinib. After 24 hours of lapatinib treatment, 50 μg/ml cycloheximide (CHX) was added to the culture medium and cells were harvested at various time points for immunoblotting."}, "[6]": {"system": "rBT474, rSKBR3, rAU565 and rSUM190 cells", "assay": "Apoptotic cell death (Annexin V FACS) in lapatinib-resistant lines", "assay_type": "cell-based", "conditions": "all four resistant lines", "procedure": "FIG. 2 is a set of graphs showing the percentage of cells undergoing apoptotic cell death for each of the four cell lines and their matched resistant cell line in the presence or absence of lapatinib and/or an MDM2 inhibitor, MI-219, as measured by FACS analysis for Annexin V. Results are expressed as mean +/− SEM of Annexin V positive cells.\nBT474, SKBR3, and AU565 cells were obtained from ATCC. SUM190 cells were obtained from Asterand, Inc. All cell lines were cultured in RPMI medium containing 10% fetal bovine serum (FBS). Lapatinib-resistant cells (rBT474, rSKBR3, rAU565, and rSUM190) were established as previously described^14. Cobleigh, et al. J. Clin. Oncol. 17, 2639-2648 (1999). Lapatinib-resistant cells were grown in the presence of 1 μM lapatinib unless otherwise stated."}, "[7]": {"biological_target": "T1, CAS-MDM2 interaction (Homo sapiens, UniProt Q00987)", "T1 construct": "association of endogenous MDM2 was analyzed by immunoblotting; expressed in transfected cells; host or cells: BT474 and rBT474 cells transfected with FLAG-CAS; MDM2 endogenous", "T1 sequence (Q00987 whole entry)": "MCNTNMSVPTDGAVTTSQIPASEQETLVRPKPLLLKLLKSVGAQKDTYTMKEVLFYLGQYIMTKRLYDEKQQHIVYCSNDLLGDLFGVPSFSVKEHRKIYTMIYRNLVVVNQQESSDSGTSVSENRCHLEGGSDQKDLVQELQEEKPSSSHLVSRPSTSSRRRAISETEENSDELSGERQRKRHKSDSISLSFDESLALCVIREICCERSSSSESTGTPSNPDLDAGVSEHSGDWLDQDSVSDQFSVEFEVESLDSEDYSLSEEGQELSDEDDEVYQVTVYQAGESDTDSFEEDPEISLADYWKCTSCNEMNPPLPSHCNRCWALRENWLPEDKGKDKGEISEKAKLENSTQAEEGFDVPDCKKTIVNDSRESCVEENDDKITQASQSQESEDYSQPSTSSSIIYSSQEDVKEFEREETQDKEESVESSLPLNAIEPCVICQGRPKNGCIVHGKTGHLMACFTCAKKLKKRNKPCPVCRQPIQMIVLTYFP", "assay": "CAS-MDM2 co-immunoprecipitation", "assay_type": "cell-based", "conditions": "1 μM lapatinib, 24 hours", "description": "BT474 and rBT474 (left) or AU565 and rAU565 cells (right) cultured in the absence of lapatinib for one week were treated with 1 μM lapatinib and the cells were harvested at various time points. FIG. 11B is an immmunoblot for CAS and Actin. rBT474 cells were maintained in the presence of 1 M lapatinib and the cells were harvested at various time points following removal of lapatinib. […] BT474 and rBT474 cells were transiently transfected with FLAG-tagged CAS and subsequently treated with 50 μg/ml cycloheximide (CHX) and 1 μM lapatinib and the cells were harvested at various time points. […] BT474 and rBT474 (left) or SKBR3 and rSKBR3 cells (right) were co-transfected with FLAG-CAS and HA-Ub. Cells were treated with 1 μM lapatinib for 24 hours in the presence of z-VAD. […] FIG. 11E is an immunoblot for FLAG-tagged proteins retrieved by immunoprecipitation and association with MDM2. […] FIG. 11F is an immunoblot for CAs after immunoprecipitation for FLAG. […] Cells were treated with 10 μM MG132 for 3 hours. […] FIG. 11I is an immunoblot for MDM2 or CAs after immunoprecipitation with FLAG. BT474 and rBT474 cells were transfected with FLAG-CAS. Cells were treated with 1 μM lapatinib for 24 hours in the presence of z-VAD. After treatment with 10 μM MG132 for 5 hours, FLAG-CAS was retrieved by immunoprecipitation and association of endogenous MDM2 was analyzed by immunoblotting. […]"}, "[8]": {"system": "Mcl-1", "assay": "Mcl-1 ubiquitylation (FLAG-Mcl-1 / HA-Ub immunoprecipitation)", "assay_type": "cell-based", "conditions": "1 μM lapatinib, 24 hours", "procedure": "FIG. 3 is a set of photographs showing that Mcl-1 is stabilized in lapatinib-resistant cells. […] FIG. 3B is a set of immunoblots showing the levels of HER2 and phospho-HER2 in untreated cells and cells treated with lapatinib. Cells were treated with or without lapatinib (1 μM) for 24 hours in the presence of the caspase inhibitor z-VAD (50 μM). The cells were harvested and cell lysates were immunoblotted using antibodies against phospho-HER2 (Y877) and total HER2. FIG. 3C is an immunoblot for phospho-AKT (T308) and total AKT. BT474 and rBT474 cells were treated with 1 μM lapatinib in the presence of 50 μM z-VAD. At the indicated time points, the cells were harvested and immunoblotted. FIG. 3D is an immunoblot for phospho-Erl1/2(T202/Y204) and total Erk1/2. BT474 and rBT474 cells were treated with 1 μM lapatinib in the presence of 50 μM z-VAD. At the indicated time points, the cells were harvested and immunoblotted. […] FIG. 3F is an autoradiograph showing the ^35[S] radioactivity in lysates containing ^35[S]-Mcl-1 at the indicated time points. ^35[S]-labeled Mcl-1 protein was incubated in cell-free lysates prepared from BT474 and rBT474 cells (top) or SKBR3 and rSKBR3 cells (bottom). […] FLAG-Mcl-1 was retrieved by immunoprecipitation using anti-flag agarose, and Mcl-1 ubiquitylation was analyzed by immunoblotting for HA (*non-specific band, **IgG heavy chain). […]"}},
  "data": [
    {"compound": "CS(=O)(=O)CCNCc1ccc(-c2ccc3ncnc(Nc4ccc(OCc5cccc(F)c5)c(Cl)c4)c3c2)o1", "note": "[lapatinib]", "values": [
      {"measurement": "cytochrome c-induced caspase activation", "setting": "[1]", "result": "strong defects in caspase activation"},
      {"measurement": "mitochondrial cytochrome c release", "setting": "[2]; parental BT474 cells", "result": "induced mitochondrial cytochrome c release in parental BT474 cells"},
      {"measurement": "mitochondrial cytochrome c release", "setting": "[2]; rBT474 cells", "result": "not rBT474 cells"},
      {"measurement": "growth of BT474-derived tumors", "setting": "[3]", "result": "significantly suppressed"},
      {"measurement": "HER2 tyrosine autophosphorylation", "setting": "[4]", "result": "inhibited"},
      {"measurement": "Huwe1 protein half-life", "setting": "[5]; lapatinib-treated rBT474 cells compared to BT474 cells, 50 μg/ml cycloheximide", "result": "significantly shorter"},
      {"measurement": "Huwe1 protein levels", "setting": "[5]; parental cells, 1 μM lapatinib", "result": "remained stable"},
      {"measurement": "Huwe1 levels", "setting": "[5]; resistant cells, 1 μM lapatinib", "result": "significantly decreased"},
      {"measurement": "cell death in response to lapatinib treatment", "setting": "[6]", "result": "did not die"},
      {"measurement": "CAS-MDM2 interaction", "setting": "[7]; BT474 cells", "result": "decreased"},
      {"measurement": "CAS-MDM2 interaction", "setting": "[7]; rBT474 cells", "result": "enhanced"},
      {"measurement": "Mcl-1 ubiquitylation", "setting": "[8]; SKBR3 cells", "result": "enhanced"},
      {"measurement": "Mcl-1 ubiquitylation", "setting": "[8]; rSKBR3 cells", "result": "diminished"}
    ]}
  ]
}
